{"source": "paper PMC8037814", "about": "“Polymorphic Characterization, Pharmacokinetics, and Anti-Inflammatory Activity of Ginsenoside Compound K Polymorphs” (Molecules, 2021)", "assay": "Pharmacokinetics after intravenous administration of CK in rats (10 mg/kg)", "type": "in vivo, Sprague-Dawley rats", "details": "i.v. 10 mg/kg; for half-life: read-out: t1/2z (converted)", "experimental": "All samples were analyzed with a triple quadrupole LC-MS/MS (API 4000 LC-MS/MS, AB Sciex, Framingham, MA, USA) coupled with an Agilent 1200 HPLC system (Agilent Technologies, Palo Alto, CA, USA). The MS was equipped with an electrospray system (ESI). The N2 gas temperature and ion-spray voltage were set to 550 °C and 4.5 kV, respectively. CK was measured in multiple reaction monitoring (MRM) mode using a negative electrospray ionization source at m/z 667.4 → 621.2 for CK (CID 25.6 v) and m/z 271.2 → 228.8 for internal standard (IS, (E)-5-(4-fluorostyryl)-2-isopropylbenzene-1,3-diol, Welichem Biotech Inc., Wayburne Drive Burnaby, BC, Canada) (CID 28.3 v) with a dwell time of 0.1 s.\nRats were divided randomly into 5 groups of six animals each (sex in half) and given 7 days to acclimatize to the facility before the experiments began. The four forms of CK were suspended in 0.5% sodium carboxymethyl cellulose (CMC-Na) solution and orally administered to rats at a dose of 20 mg/kg. A CK solution in a mixed solvent of dimethyl sulfoxide (DMSO)/castor oil/physiologic saline (3:5:92, v/v) was intravenously administered to the remaining group via the tail vein at a dose of 10 mg/kg. Blood samples were collected by retro-orbital puncture at the following times: 0.167, 0.333, 0.667, 1, 2, 3, 4, 6, 9, 12, and 24 h for the oral administration, and at 0.0083, 0.05, 0.133, 0.25, 0.5, 1, 2, 4, 6, and 9 h for the intravenous administration. Plasma samples were obtained by centrifuging a heparinized blood tube at 4000 rpm for 5 min and then stored at −70 °C until analysis.\nThe procedure for drug extraction from plasma samples was as follows: 0.2 mL acetonitrile, 0.2 mL plasma sample, and 10 μL IS (1 µg/mL) were added into a 1.5 mL Eppendorf-type tube. This mixture was vortexed for 1 min and then treated with 0.8 mL of methyl tert-butyl ether (MTBE) to precipitate the plasma proteins. After a mechanical vortex for 1 min and subsequent centrifugation (4000 rpm, 5 min), 0.8 mL of the supernatant was transferred and blow-dried with N2 at 40 °C in a water bath. Finally, the residue was dissolved in 120 μL of mobile phase, and then 10 μL was subjected to HPLC for analysis. […] Intra- and inter-day precision and accuracy never exceeded 15% by analyzing six replicate samples.\nThe CK pharmacokinetic parameters in rats, including the area under the curve (AUC(0–t) and AUC(0–∞)), mean residence time (MRT(0–t) and MRT(0–∞)), maximum concentration (Cmax), time to maximum concentration (Tmax), half-life (t1/2), apparent distribution volume (V), and total plasma clearance (CL), were derived from plasma concentration-time curves by using non-compartmental analysis (NCA) with DAS 2.0 software (Drug And Statistics, Mathematical Pharmacology Professional Committee of China, Shanghai, China). The absolute bioavailability (Fabs) was calculated from the dose-adjusted ratio of AUCp.o. to AUCi.v.. One-way analysis of variance (ANOVA) by SPSS 11.5 (SPSS Inc., Chicago, IL, USA) was conducted to compare the primary PK parameters.", "key": {"[1]": {"details": "female rats, individual rats 1-3, 10 mg/kg"}, "[2]": {"details": "female, Sprague-Dawley, rat, plasma, iv, 10 mg/kg, female rats, Mean±SD"}}, "note": "Several values for one entry are separate records, joined by “and”; a condition that tells them apart may be missing. Equal entries are not always repeated. Where two headings read alike, the source gives them in different places."}
{"smiles": "CC(C)=CCCC(C)(OC1OC(CO)C(O)C(O)C1O)C1CCC2(C)C1C(O)CC1C3(C)CCC(O)C(C)(C)C3CCC12C", "note": "[CK, 20-O-β-D-glucopyranosyl-20(S)-protopanaxadiol]", "values": [{"measurement": "Plasma concentrations of CK", "setting": "female rats, 0.5 min, individual rats 1-3, 10 mg/kg", "value": "54838.90 ng/mL and 127905.96 ng/mL and 48362.17 ng/mL"}, {"measurement": "Plasma concentrations of CK", "setting": "female rats, 0.05 h, individual rats 1-3, 10 mg/kg", "value": "15185.26 ng/mL and 25786.82 ng/mL and 6748.70 ng/mL"}, {"measurement": "Plasma concentrations of CK", "setting": "female rats, 8 min, individual rats 1-3, 10 mg/kg", "value": "1631.02 ng/mL and 4937.02 ng/mL and 980.77 ng/mL"}, {"measurement": "Plasma concentrations of CK", "setting": "female rats, 0.25 h, individual rats 1-3, 10 mg/kg", "value": "672.83 ng/mL and 1554.81 ng/mL and 553.32 ng/mL"}, {"measurement": "Plasma concentrations of CK", "setting": "female rats, 0.5 h, individual rats 1-3, 10 mg/kg", "value": "411.75 ng/mL and 359.74 ng/mL"}, {"measurement": "Plasma concentrations of CK", "setting": "female rats, 1 h, individual rats 1-3, 10 mg/kg", "value": "117.01 ng/mL and 136.73 ng/mL and 243.80 ng/mL"}, {"measurement": "Plasma concentrations of CK", "setting": "female rats, 2 h, individual rats 1-3, 10 mg/kg", "value": "136.06 ng/mL and 82.52 ng/mL"}, {"measurement": "Plasma concentrations of CK", "setting": "female rats, 4 h, individual rats 1-3, 10 mg/kg", "value": "63.54 ng/mL and 48.16 ng/mL and 99.22 ng/mL"}, {"measurement": "Plasma concentrations of CK", "setting": "female rats, 6 h, individual rats 1-3, 10 mg/kg", "value": "27.72 ng/mL and 22.95 ng/mL and 47.61 ng/mL"}, {"measurement": "Plasma concentrations of CK", "setting": "female rats, 9 h, individual rats 1-3, 10 mg/kg", "value": "27.31 ng/mL and 14.83 ng/mL and 34.93 ng/mL"}, {"measurement": "CLz/F", "setting": "female rats, Mean±SD", "value": "92.7 ± 34.3", "unit": "mL/min/kg"}, {"measurement": "Vz/F", "setting": "female rats, Mean±SD", "value": "17.75 ± 7.49", "unit": "L/kg"}, {"measurement": "AUC(0-t)", "setting": "[1]", "value": "3164.67 ng·h/mL and 6150.84 ng·h/mL and 2722.08 ng·h/mL"}, {"measurement": "AUC(0-∞)", "setting": "[1]", "value": "3206.10 ng·h/mL and 6173.20 ng·h/mL and 2779.29 ng·h/mL"}, {"measurement": "CLz/F", "setting": "[1]", "value": "104 mL/min/kg and 54 mL/min/kg and 120 mL/min/kg"}, {"measurement": "MRT(0-t)", "setting": "[1]", "value": "34.2 min and 15.6 min and 60 min"}, {"measurement": "MRT(0-∞)", "setting": "[1]", "value": "56.4 min and 20.4 min and 86.4 min"}, {"measurement": "Vz/F", "setting": "[1]", "value": "21.99 L/kg and 9.10 L/kg and 22.17 L/kg"}, {"measurement": "t1/2z", "setting": "[1]", "value": "117 min and 128 min"}, {"measurement": "concentration at 0.5 min", "setting": "female, Sprague-Dawley, rat, plasma, iv, 10 mg/kg, female rats, 0.5 min, Mean±SD, read-out: Plasma concentrations of CK", "value": "77000 ± 44200", "unit": "ng/mL"}, {"measurement": "concentration at 0.05 h", "setting": "female, Sprague-Dawley, rat, plasma, iv, 10 mg/kg, female rats, 0.05 h, Mean±SD, read-out: Plasma concentrations of CK", "value": "15900 ± 9540", "unit": "ng/mL"}, {"measurement": "concentration at 8 min", "setting": "female, Sprague-Dawley, rat, plasma, iv, 10 mg/kg, female rats, 8 min, Mean±SD, read-out: Plasma concentrations of CK", "value": "2520 ± 2120", "unit": "ng/mL"}, {"measurement": "concentration at 0.25 h", "setting": "female, Sprague-Dawley, rat, plasma, iv, 10 mg/kg, female rats, 0.25 h, Mean±SD, read-out: Plasma concentrations of CK", "value": "927 ± 547", "unit": "ng/mL"}, {"measurement": "concentration at 0.5 h", "setting": "female, Sprague-Dawley, rat, plasma, iv, 10 mg/kg, female rats, 0.5 h, Mean±SD, read-out: Plasma concentrations of CK", "value": "354 ± 60.4", "unit": "ng/mL"}, {"measurement": "concentration at 0.5 h", "setting": "female, Sprague-Dawley, rat, plasma, iv, 10 mg/kg, female rats, 0.5 h, individual rats 1-3, read-out: Plasma concentrations of CK", "value": 291, "unit": "ng/mL"}, {"measurement": "concentration at 1 h", "setting": "female, Sprague-Dawley, rat, plasma, iv, 10 mg/kg, female rats, 1 h, Mean±SD, read-out: Plasma concentrations of CK", "value": "166 ± 68.2", "unit": "ng/mL"}, {"measurement": "concentration at 2 h", "setting": "female, Sprague-Dawley, rat, plasma, iv, 10 mg/kg, female rats, 2 h, Mean±SD, read-out: Plasma concentrations of CK", "value": "102 ± 29.8", "unit": "ng/mL"}, {"measurement": "concentration at 2 h", "setting": "female, Sprague-Dawley, rat, plasma, iv, 10 mg/kg, female rats, 2 h, individual rats 1-3, read-out: Plasma concentrations of CK", "value": 86.6, "unit": "ng/mL"}, {"measurement": "concentration at 4 h", "setting": "female, Sprague-Dawley, rat, plasma, iv, 10 mg/kg, female rats, 4 h, Mean±SD, read-out: Plasma concentrations of CK", "value": "70.3 ± 26.2", "unit": "ng/mL"}, {"measurement": "concentration at 6 h", "setting": "female, Sprague-Dawley, rat, plasma, iv, 10 mg/kg, female rats, 6 h, Mean±SD, read-out: Plasma concentrations of CK", "value": "32.8 ± 13.1", "unit": "ng/mL"}, {"measurement": "concentration at 9 h", "setting": "female, Sprague-Dawley, rat, plasma, iv, 10 mg/kg, female rats, 9 h, Mean±SD, read-out: Plasma concentrations of CK", "value": "25.7 ± 10.1", "unit": "ng/mL"}, {"measurement": "AUC(0-inf)", "setting": "[2]", "value": "4050 ± 1850", "unit": "ng·h/mL"}, {"measurement": "AUC(0-t)", "setting": "female, Sprague-Dawley, rat, plasma, iv, 10 mg/kg, female rats, Mean±SD, read-out: AUC(0-t)", "value": "4010 ± 1870", "unit": "ng·h/mL"}, {"measurement": "MRT last", "setting": "female, Sprague-Dawley, rat, plasma, iv, 10 mg/kg, female rats, Mean±SD, read-out: MRT(0-t)", "value": "36.6 ± 22.2", "unit": "min"}, {"measurement": "MRT inf", "setting": "female, Sprague-Dawley, rat, plasma, iv, 10 mg/kg, female rats, Mean±SD, read-out: MRT(0-∞)", "value": "54.6 ± 33", "unit": "min"}, {"measurement": "half-life", "setting": "[2]", "value": "131 ± 15", "unit": "min"}, {"measurement": "half-life", "setting": "female, Sprague-Dawley, rat, plasma, iv, 10 mg/kg, female rats, individual rats 1-3", "value": 146, "unit": "min"}, {"measurement": "Plasma concentrations of CK", "setting": "male rats, 0.5 min, individual rats 1-3, 10 mg/kg", "value": "67670.83 ng/mL and 69233.93 ng/mL"}, {"measurement": "Plasma concentrations of CK", "setting": "male rats, 0.05 h, individual rats 1-3, 10 mg/kg", "value": "11403.43 ng/mL and 18155.87 ng/mL"}, {"measurement": "Plasma concentrations of CK", "setting": "male rats, 8 min, individual rats 1-3, 10 mg/kg", "value": "1214.82 ng/mL and 3002.82 ng/mL and 2609.85 ng/mL"}, {"measurement": "Plasma concentrations of CK", "setting": "male rats, 0.25 h, individual rats 1-3, 10 mg/kg", "value": "664.52 ng/mL and 1307.24 ng/mL"}, {"measurement": "Plasma concentrations of CK", "setting": "male rats, 0.5 h, individual rats 1-3, 10 mg/kg", "value": "214.44 ng/mL and 391.89 ng/mL"}]}
